Assay [1] concerns the target Na,K-ATPase α2β1 isoform complex (Homo sapiens, UniProt P50993). Description: biochemical. The class given is biochemical. Conditions: Ki ± S.E. α2, Table 2; α2β1. The procedure: (§1) Methods for transformation, culture of P. pastoris clones, protein expression of Na,K-ATPase human isoforms (α1β1, α2β1, α3β1), membrane preparation, solubilization of membranes in DDM, and purification on BD-Talon beads have been described in detail (6-9, 11, 25). In initial experiments the three purified isoform complexes (0.3-0.5 mg/ml) were eluted from the BD-Talon beads in a solution containing Imidazole 170 mM, NaCl 100 mM; Tricine.HCl 20 mM pH 7.4; C12E8, 0.1 mg/ml; SOPS 0.07 mg/ml cholesterol 0.01 mg/ml, glycerol 25%. In later experiments the isoforms complexes were reconstituted with purified FXYD1 on the BD-Talon beads together as described in detail in (10, 11) prior to elution of α1β1FXYD1, α2β1FXYD1 and α3β1FXYD1 complexes. The proteins were stored at −80° C. Protein concentration was determined with BCA (B9643 Sigma).
(§2) Inhibition of Na,K-ATPase activity of the detergent-soluble α1β1, α2β1, and α3β1 complexes by CG's was determined as described (6) using either the αβ or αβFXYD1 complexes. […] The K0.5K was estimated by varying K concentration in a medium containing a fixed total K+choline chloride of 60 mM, and constant NaCl of 140 mM. Curves were fitted to the Hill function v=Vmax*[S]^n/([S]^n+K^n), where S is the K concentration, n is the Hill coefficient and K^n is K0.5K. For comparison of different curves the ratio v/Vmax for each curve was calculated and replotted. In experiments to assess inhibition of Na,K-ATPase activity by cardiac glycosides of the present invention, the percent inhibition VCG/V0 was calculated and Ki values were obtained by fitting the data to the function VCG/V0=Ki/([CG]+Ki)+ c. Inhibition was estimated in 3-8 separate experiments and average Ki values ±SEM were calculated. Significance of differences between Kiα1 and Kiα2 was calculated by the unpaired Student's t-test (p values). […] P values <0.05 were considered significant.

For assay [2], the system named is Na,K-ATPase α2β1 isoform complex. Briefly: biochemical. The class given is biochemical, human. The conditions noted are these: for Selectivity ratio Ki α1/α2 ± S.E.: Kiα1β1/Kiα2β1. The procedure:
as §1, §2

The test system of assay [3] is purified α2β1FXYD1 complexes of Na,K-ATPase. Briefly: Dissociation of cardiac glycosides from the α2β1 isoform complex. The conditions noted are these: α2β1 isoform complex, 37° C. How it is done: Since the principal isoform in NPE cells is α2 and dissociation from the pump is expected to affect the duration of the effects on IOP, the dissociation rates of different cardiac glycosides from the purified α2β1 isoform were compared.
Purified α2β1FXYD1 complexes (0.3-0.5 mg/ml) were incubated for 30 minutes at 37° C. in a medium containing ATP, 1 mM; NaCl 100 mM; MgCl2, 4 mM Histidine.HCl 25 mM pH 7.4 without (Control) or with 1 μM of different cardiac glycosides. The enzyme solutions were then diluted 100-fold into a medium containing 100 mM NaCl, 5 mM KCl, 1 mM EDTA (Tris), 0.005 mg/ml C12E8, 0.01 mg/ml SOPS, and 0.001 mg/ml cholesterol and incubated at 37° C. for different lengths of time. Aliquots were removed at different times and Na,K-ATPase activity was measured in triplicate over 0.5 minutes (digoxigenin) or 2 minutes (other cardiac glycosides) in the standard activity medium containing 200 μM ATP. The activity of test samples was divided by the activity of the control samples and the time-course for reversal of inhibition was analyzed by fitting the data to the function vt=v∞e^−kt+c. Normalized curves for comparison of different experiments (e.g. as in FIG. 9) were obtained by subtracting the constant value c from each value of the activity and re-fitting the ratio vt/v∞=1−e^−kt.

The test system of assay [4] is intra-ocular pressure (IOP) of rabbits. Description: 4-aminopyridine (4AP)-induced ocular hypertension in rabbits. The class given is in vivo, New Zealand white rabbits. The conditions noted are these: for Time IOP is held at the low level / Time IOP is maintained at the low level: single drop; for Time IOP is maintained at the low level: 1 mM; for Order of relative effects on IOP: all at 0.1 mM, 1.5 hours after 4AP, average of three experiments.

Results on two compounds are retold here after patent US9938316B2, “Selective inhibitors of α2 isoform of Na,K-ATPase and use thereof for reduction of intra-ocular pressure and as cardiotonic agents” (priority 2013, dated 2018).

Values joined by “and” are separate entries in the source; they are usually repeats but may differ in a detail not shown here. Equal entries are not always repeated.

`CC1CN(C)CCC(OC2C(O)CC(OC3C(O)CC(OC4CCC5(C)C(CCC6C5CC(O)C5(C)C(C7=CC(=O)OC7)CCC65O)C4)OC3C)OC2C)O1` (stereo not drawn) [DMe] came in with a Ki in assay [1] of 0.0156 ± 0.0023 µM. In addition, in assay [2], the “Selectivity ratio Ki α1/α2 ± S.E.” value worked out at 6.47±0.71. Further, the “Selectivity α1β1/α2/β1” value in assay [2] (ratio of Ki, Table 6) stood at 6.7. For the same compound, the “k ± SEM (rate of dissociation)” value in assay [3] is 0.0067 ± 0.004, 3 min^−1. For the same compound, the “Time IOP is held at the low level” value worked out at 2.5 h in assay [4] (0.2 mM, 4AP every two hours); 4.5 h in assay [4] (0.5 mM, 4AP every two hours); 5.8 h in assay [4] (2 mM, 4AP every two hours). The “Time IOP is maintained at the low level” value in assay [4] (4AP every two hours) is on record as “about 5.5 hours”. Besides, the “Order of relative effects on IOP” value in assay [4] was “DGlyN≈DMe≈digoxigenin>digoxin>ouabain”.

Regarding `CC1CN(CC(N)=O)CCC(OC2C(O)CC(OC3C(O)CC(OC4CCC5(C)C(CCC6C5CC(O)C5(C)C(C7=CC(=O)OC7)CCC65O)C4)OC3C)OC2C)O1` (stereo not drawn) [DGlyN], the Ki in assay [1] stood at 0.0204 ± 0.001 µM. Further, the “Selectivity ratio Ki α1/α2 ± S.E.” value in assay [2] is 7.45±0.46 and 7.45. Further, in assay [3], the “k ± SEM (rate of dissociation)” value is 0.009 ± 0.001, 3 min^−1. The “Time IOP is maintained at the low level” value in assay [4] (4AP every two hours) amounted to 3.5 h. For the same compound, in assay [4], the “Order of relative effects on IOP” value was “DGlyN≈DMe≈digoxigenin>digoxin>ouabain”. The “Wash-out time/rate compared with other cardiac glycosides” value in assay [4] (equal concentrations, 4AP every two hours) is listed as “slightly faster than for DMe”.
